# From a melting point compilation (Tetko et al.; mined from patent text by program, amines drawn as free bases though some values may be those of a salt)
row,melting point,Compound
1,181 to 182 °C,Oc1ccc(-c2c3ccccc3c(Br)c3sc4ccccc4c23)cc1O
2,143 to 144 °C,Cc1nc(-c2ccc(-c3ccco3)cc2)c(-c2ccc(S(C)(=O)=O)cc2)o1
3,100 to 102 °C,O=C(CCCN1CCC(c2ccccc2Cc2ccccc2)CC1)c1ccc(F)cc1
4,67 to 69 °C,Cc1ccc([N+](=O)[O-])c(O)c1CCC(C)Br (centres undefined)
5,> 300 °C,O=C1Nc2cc(NC(=O)c3cccn(-c4ccc(F)cc4)c3=O)ccc2/C1=C/c1ccc[nH]1
6,122 °C,COc1ccc(-c2n[nH]cc2C(=O)N2CCOCC2)cc1OC
7,150 to 152 °C,COc1ccnc(CCc2nc3cncnc3[nH]2)c1
8,50 to 55 °C,CCOCCn1c(N2CCCN(CCC3(c4ccccn4)CCN(C(=O)c4cc(OC)c(OC)c(OC)c4)C3)CC2)nc2ccccc21 (centres undefined)
9,166 to 172 °C,ON=C1COc2cc(OCc3c(F)cccc3F)ccc21
10,173 to 176 °C,CC(C#N)c1ccc2oc(=S)[nH]c2c1 (centres undefined)
11,123 °C,Cc1cccc(N2CCN(c3ccc(Oc4ccccc4)nn3)CC2)c1
12,198 °C,Cc1cc(C)nc(NC(=O)NS(=O)(=O)Nc2nc(C)cc(C)n2)n1
13,152 to 154 °C,COc1c(C)cnc(CSc2nc3cc(OC(F)(F)F)ccc3[nH]2)c1C
14,44 to 45 °C,"OC(COCc1ccccc1)C(O)COCc1ccccc1 (single isomer, unassigned; (+))"
15,157 °C,CC(=O)OC1CSC(Oc2ccc(-c3ccc(CO)cc3)nc2)C(OC(C)=O)C1OC(C)=O (centres undefined)
16,240 to 242 °C,CCOc1nc(Nc2ccc(F)c(F)c2)nc(NC2CCN(S(=O)(=O)c3ccc(F)cc3)CC2)n1
17,210 to 214 °C,C#CCNC(=O)c1cccc(F)c1Nc1nc(Nc2ccc3c(c2)N(C(C)=O)CCCC3)ncc1Cl
18,159 to 160 °C,CNc1cccc(-c2ccc3c(C(N)=O)nn(-c4ccc(S(N)(=O)=O)cc4)c3c2)c1
19,271 to 272 °C,CC1CC(=O)NN=C1c1ccc2c(c1)NC(=O)C(C)O2 (centres undefined)
20,195 °C,CC(=O)OC1CSC(Oc2cccc(-c3c(C)n[nH]c3C)c2)C(OC(C)=O)C1OC(C)=O (centres undefined)
21,244 to 246 °C,Cc1nc2c(c3c1[nH]c1ccc(Cl)cc13)C(=O)CC(C)(C)C2
22,123 to 124 °C,Cn1cc(Br)cc1C=O
23,215 °C,O=C(O)/C=C/c1ccc(C(=O)NCC2CCCO2)cc1 (centres undefined)
24,138 to 140 °C,CN1CCOc2cc3c(cc21)OCC31C(=O)N(CC2CCCO2)c2ccccc21 (centres undefined)
25,> 250 °C,O=c1[nH]c2cc3ccccc3cc2[nH]c1=O

row,melting point,Compound
1,171 to 173 °C,COc1ccc(C(=O)Nc2c(C)c(C)c3c(c2C)C(c2ccc(C(C)C)cc2)C(C)(C)O3)cc1OC (centres undefined)
2,130 to 132 °C,COc1cc2c(cc1Cl)C(Cl)Cc1ccccc1S2 (centres undefined)
3,283 to 284 °C,Cn1c(Oc2ccc(Cl)c(F)c2)nc2c(-c3cccc(C(=O)O)c3)cccc21
4,136 °C,Cc1c(C=CC#N)cccc1[N+](=O)[O-]
5,155 to 156 °C,CONC(=O)C(Oc1cc(OCc2ccsc2)ccc1C#N)c1ccccc1C (racemic)
6,206 to 207 °C,CN(OCc1nc2c(N)nc3ccccc3c2n1CC(C)(C)O)C(N)=O
7,55 to 63 °C,COC(=O)c1oc2ccc(OC)cc2c1OC(C)C
8,90 to 91 °C,CCCCCCCN(Cc1ccc(CCC(C)C)cc1)C(=O)NC1(OC)C=C(C)C=CN1 (centres undefined)
9,214 to 215 °C,Cc1c(OC(F)F)ccnc1CSc1nc2ccc(O)cc2[nH]1
10,68 to 70 °C,CCC(C#N)(Cn1cncn1)c1ccc(Br)cc1 (centres undefined)
11,112 to 114 °C,CCCCCCCN(C[C@H]1CC[C@H](CN(CCCCCCC)C(=O)Nc2ccc(N(C)C)cc2)CC1)C(=O)Nc1ccc(N(C)C)cc1
12,129 to 130 °C,Cc1nnc(-c2ccc3occ(-c4ccc(OC(F)(F)F)cc4)c3c2)o1
13,45 to 50 °C,COc1ccc(C)nc1I
14,264 to 265 °C,NC(=S)c1sc(N2CCCC2)nc1N
15,108 °C,COc1cc2c(c(OC)c1/C=C/c1ccc(C=O)cc1)C(C)(C)CCC2(C)C
16,226 to 229 °C,CC1=C(c2ccc(O)cc2)C(=O)c2cc(O)c(O)cc21
17,128 to 130 °C,O=C(O)CCC(=NO)c1ccc(-n2cccn2)cc1
18,99 to 100 °C,CON=C(C(=O)O)c1cnsn1
19,261 to 263 °C,COc1cc(OC)c2c(=O)[nH]c(-c3cc(C)c(OCCN(C)C)c(C)c3)cc2c1
20,148 to 149 °C,OCc1ccc(-c2c3ccccc3nn2Cc2ccccc2)cc1
21,85 to 87 °C,CC(=O)OC(c1ccc(OCc2ccccc2)cc1)C(F)(F)F (centres undefined)
22,153 to 154 °C,Nc1ccccc1C(=O)NCC1CCN(C(c2ccccc2)c2ccccc2)CC1
23,> 320 °C,CCOC(=O)c1oc2cc(O)ccc2c(=O)c1C(N)=O
24,123 to 124 °C,COc1cccc2c1CCC1CCC(=O)N(C)CC21 (centres undefined)
25,115 to 118 °C,CC(=O)Nc1ccc2c(c1)OCC2

row,melting point,Compound
1,221 to 222 °C,CC(C)(C)c1cc(C(=O)N2CCN(c3ccc(N)cc3)CC2)cc(C(C)(C)C)c1O
2,204 to 205 °C,Oc1c(Cc2ccccc2)nc(Cc2ccccc2)c2c1COC2
3,150 to 152 °C,CSc1ccc(C2NC(C(=O)O)C(C)(C)S2)cc1 (centres undefined)
4,209 °C,Nc1cc(C(=O)c2cccc(C(=O)c3ccc(Cl)c(N)c3)c2)ccc1Cl
5,118 °C,C#CCCC(=O)N1CCC(=Cc2ccc(C3=NCCO3)cc2)CC1
6,183 to 185 °C,Fc1ccc2[nH]cc(C3CCC4(CC3)OCCO4)c2c1
7,161 °C,CCOC(=O)C1=C(C)N2CCCC2=C(C(C)=O)C1c1cccc([N+](=O)[O-])c1 (centres undefined)
8,33 to 34 °C,CCCCCCCCc1ccc(C(=O)CBr)cc1
9,112 to 114 °C,COCCN(CCOC)c1ccc(Nn2c(C)ccc2C)nn1
10,164 to 166 °C,CCn1cc(C(=O)O)c(=O)c2cc(F)c(-c3csc(CNC)n3)c(OC)c21
11,27 to 28 °C,CCCCCCCCCCCCCCOCC(CI)(CI)COCCCCCCCCCCCCCC
12,72 to 73 °C,FC(F)(F)c1cccc(Oc2ccnc(-n3ccc(C(F)(F)F)n3)n2)c1
13,205 to 207 °C,CC1CCC(=NNc2ccccc2)c2ncc(C(=O)NN)c(=O)n21 (centres undefined)
14,46 °C,CC1(C)CCC(C)(C)C1OS(C)(=O)=O
15,210 to 211 °C,O=C(C=Cc1ccc(CNCC2CCCCC2O)cc1)Nc1ccc(-c2ccc(Cl)cc2)cc1 (centres undefined)
16,165 to 166 °C,COc1ccc(C(=O)C2CCC(C)(C(=O)O)C2(C)C)cc1 (centres undefined)
17,128 to 129 °C,CCCn1nc2c(-c3ccccc3)cccc2c1-c1ccc(OC)cc1
18,155 to 157 °C,CCOC(=O)COc1ccccc1C(=O)Nc1ccccc1Sc1ccc(-c2nnn[nH]2)cc1
19,127 to 128 °C,CC(=O)NCc1ccc(CN2CCN(c3nc(C)cc(C)n3)CC2)cc1
20,58 to 60 °C,Cc1nc2nc(Cl)c(Cl)nc2s1
21,115 °C,CCc1nc(-n2ccnc2)c2ccccc2c1Cl
22,125 to 128 °C,CC(=O)C1(c2ccccc2)CCN(C(=O)C(c2ccccc2)n2cnc3[nH]ncc3c2=S)CC1 (centres undefined)
23,116 °C,c1ccc(OCCN2CCC(CNc3nc4ccccc4s3)CC2)cc1
24,195 °C,CNc1nc(Nc2ccc(Cl)c(CNC(=O)OC(C)(C)C)c2)ncc1[N+](=O)[O-]
25,194 to 197 °C,CC(=O)N1CCN=C1Nc1ccnn1-c1cccc(C(F)(F)F)c1

row,melting point,Compound
1,149 °C,COc1cc(Nc2nccc(Oc3ccccc3)n2)cc(OC)c1OC
2,149 to 154 °C,CN(C)C(=O)c1ccccc1CS(N)(=O)=O
3,186 to 187 °C,COc1cc(N)c(Cl)cc1-c1nn(C2CCN(CC3CCCCC3)CC2)c(=O)o1
4,175 to 177 °C,NC(=O)N1CCN2c3ccccc3Cn3cccc3C2C1 (centres undefined)
5,98 °C,CN(C)CCCOc1ccccc1CC(=O)O
6,99.5 °C,CC(=O)OC(C=C(C)C=CC=C(C)C=O)OC(C)=O
7,222 to 224 °C,Cn1c(N)c(CN2CCN(c3cccc4c3OCCO4)CC2)c(=O)n1-c1ccccc1
8,152 to 154 °C,CC(C)CC1(CCCCN2CCN(c3cccc4c3OCCO4)CC2)C(=O)Nc2ccccc21 (centres undefined)
9,91 to 93 °C,CC(=O)c1cc(C=O)c2occc2c1
10,59 to 61 °C,CCOC(=O)CCCOc1ccc(C(C)=O)cc1
11,63 to 65 °C,O=C(Cl)c1c(Cl)cc([N+](=O)[O-])cc1Cl
12,125 to 127 °C,CC(C)(O)c1csc(S(N)(=O)=O)c1
13,30 to 32 °C,CN(C)c1nc(-c2cccc3ccccc23)co1
14,124 °C,COc1ccc2c(c1C=O)OCO2
15,113 to 130 °C,CNC(=O)CN1CCc2cc(Nc3ncc(Cl)c(Nc4ccc(N5CCOCC5)cc4OC)n3)c(OC)cc2CC1
16,228 to 230 °C,Cc1cc(=O)[nH]c(=O)n1Cc1ccccc1
17,65 °C,CC(C)(C)NC(=O)C(=O)C(C)(C)C
18,164 to 166 °C,Cc1cc(C2=NNC(=O)Cc3cc4c(cc32)OCO4)ccc1N
19,279 to 280 °C,CC(C)(C)c1cc(C(=O)Nc2cccc(C(=O)O)c2)cc(C(C)(C)C)c1O
20,128 to 130 °C,C[Si](C)(C)C#Cc1ccc(C=CC2=CC(c3ccc(C#C[Si](C)(C)C)cc3)N(c3ccccc3)N2)cc1 (centres undefined)
21,162 °C,COCCC(=O)OC1(C(=O)COC(C)=O)CCC2C3CC(C)C4=CC(=O)C=CC4(C)C3C(O)CC21C (centres undefined)
22,228 to 232 °C,NNc1ccnc2c(NC(=O)c3c(Cl)cccc3Cl)cc(C(F)(F)F)cc12
23,40 to 48 °C,CC12CCC(CC1=O)C(C)(C)O2 (centres undefined)
24,124 to 125 °C,N#CCCOc1ccccc1OCCC#N
25,103 °C,Fc1ccc(OCc2cccc(Oc3ccnc(Cl)c3)n2)cc1

row,Compound,melting point
1,S=C1Nc2ccccc2Sc2ccccc21,245 to 246 °C
2,CCOC(=O)C1(c2ccccc2)CCN(C(C)=O)C(=O)C1 (centres undefined),45 to 46 °C
3,O=C1NCN(c2ccc(Br)cc2)C12CCN(C1C=CC(c3ccc(F)cc3)(c3ccc(F)cc3)CC1)CC2 (centres undefined),219 to 221 °C
4,CCN(CC)C(=O)NC1CC2c3cccc4[nH]c(C(=O)OCc5ccccc5)c(c34)CC2N(C)C1 (centres undefined),226 to 229 °C
